Measurements published in ChEMBL document CHEMBL4118066, “QSAR-driven design, synthesis and discovery of potent chalcone derivatives with antitubercular activity” (Eur J Med Chem, 2017).
≈ marks a conversion by molar mass, not a printed value.

Tests used:
Staphylococcus aureus = test: Antibacterial activity against Staphylococcus aureus ATCC 29213 after 16 to 20 hrs; type: functional
Escherichia coli = test: Antibacterial activity against Escherichia coli ATCC 25922 after 16 to 20 hrs; type: functional
Mycobacterium kansasii = test: Antimycobacterial activity against Mycobacterium kansasii ATCC 12478 after 7 days under normoxic condition by microplate Alamar blue assay; type: functional; details: ATCC 12478, 168 h
[1] = tested on: Mycobacterium tuberculosis; test: Antitubercular activity against Mycobacterium tuberculosis H37Rv ATCC 27294 treated for 10 days under hypoxic condition followed by 28 hrs of normoxic recovery; type: functional
Mycobacteroides chelonae = test: Antimycobacterial activity against Mycobacterium chelonae ATCC 35752 after 7 days under normoxic condition by microplate Alamar blue assay; type: functional; details: ATCC 35752, 168 h
Mycobacterium marinum = test: Antimycobacterial activity against Mycobacterium marinum ATCC 927 after 7 days under normoxic condition by microplate Alamar blue assay; type: functional; details: ATCC 927, 168 h
[2] = tested on: Mycobacterium tuberculosis; test: microbe, parasite or virus in culture; type: functional; details: H37Rv ATCC 27294, 168 h
Description: Antitubercular activity against Mycobacterium tuberculosis H37Rv ATCC 27294 after 7 days under normoxic condition by microplate Alamar blue assay

Mycobacterium avium = test: Antimycobacterial activity against Mycobacterium avium ATCC 15769 after 7 days under normoxic condition by microplate Alamar blue assay; type: functional; details: ATCC 15769, 168 h
Candida albicans = test: Antifungal activity against Candida albicans ATCC 90028 after 36 to 48 hrs; type: functional
in vitro = details: monkey
Description: Selectivity index, ratio of IC50 for African green monkey Vero cells to MIC90 for Mycobacterium tuberculosis H37Rv ATCC 27294 under normoxic condition

[3] = tested on: Mycobacteroides abscessus; test: Antimycobacterial activity against Mycobacterium abscessus ATCC 19977 after 7 days under normoxic condition by microplate Alamar blue assay; type: functional; details: ATCC 19977, 168 h
[4] = tested on: Mycolicibacterium smegmatis; test: Antimycobacterial activity against Mycobacterium smegmatis ATCC MC2155 after 7 days under normoxic condition by microplate Alamar blue assay; type: functional; details: str. MC2 155, 168 h

SMILES | MIC90 (Staphylococcus aureus) [µM] | MIC90 (Escherichia coli) [µM] | MIC90 (Mycobacterium kansasii) [µM] | MIC90 [1] [µM] | MIC90 (Mycobacteroides chelonae) [µM] | MIC90 (Mycobacterium marinum) [µM] | MIC90 [2] [µM] | MIC90 (Mycobacterium avium) [µM] | MIC90 (Candida albicans) [µM] | selectivity ratio (in vitro; Vero cells) | MIC90 [3] [µM] | MIC90 [4] [µM] | selectivity ratio (in vitro; vero)
CC1(C)S[C@@H]2[C@H](NC(=O)[C@H](N)c3ccccc3)C(=O)N2[C@H]1C(=O)O [AMPICILLIN] | 0.25 (≈ 0.0874 µg/mL) | 1.18 (≈ 0.412 µg/mL) |  |  |  |  |  |  |  |  |  |  | 
COc1ccc(/C=C/C(=O)c2cccc(Br)c2)cc1 | > 10 | > 10 | 9.21 (≈ 2.92 µg/mL) | 8.2 (≈ 2.6 µg/mL) | > 10 | > 10 | 8.54 (≈ 2.71 µg/mL) | 9.82 (≈ 3.11 µg/mL) | > 10 | 11 | > 10 | > 10 | 
O=C(/C=C/c1ccc([N+](=O)[O-])cc1)c1ccc(N2CCCCC2)cc1 | > 10 | > 10 | > 10 | > 10 | > 10 | > 10 | > 10 | > 10 | > 10 |  | > 10 | > 10 | 
O=C(/C=C/c1ccc([N+](=O)[O-])o1)c1ccc(C2CCCCC2)cc1 | > 10 | > 10 |  | 3.33 (≈ 1.08 µg/mL) |  |  | 0.81 (≈ 0.264 µg/mL) |  | > 10 | 122 |  | > 10 | 
O=C(/C=C/c1ccc([N+](=O)[O-])s1)c1ccc(C2CCCCC2)cc1 | > 10 | > 10 | 9.26 (≈ 3.16 µg/mL) | 5.75 (≈ 1.96 µg/mL) | > 10 | > 10 | > 10 | 5.99 (≈ 2.05 µg/mL) | > 10 |  | > 10 | > 10 | 
O=C(/C=C/c1ccc([N+](=O)[O-])o1)c1ccc(I)cc1 | > 10 | > 10 | 0.59 (≈ 0.218 µg/mL) | 4.12 (≈ 1.52 µg/mL) | > 10 | > 10 | 0.6 (≈ 0.221 µg/mL) | 2.38 (≈ 0.878 µg/mL) | > 10 | 166 | > 10 | 4.62 (≈ 1.71 µg/mL) | 
Cc1cccc(C(=O)/C=C/c2ccc([N+](=O)[O-])o2)c1 | 2.23 (≈ 0.574 µg/mL) | > 10 | 0.49 (≈ 0.126 µg/mL) | 4.75 (≈ 1.22 µg/mL) | > 10 | 2.39 (≈ 0.615 µg/mL) | 1.27 (≈ 0.327 µg/mL) | 1.92 (≈ 0.494 µg/mL) | > 10 | 43 | > 10 | > 10 | 
COc1ccc(/C=C/C(=O)c2cccc(I)c2)cc1 | > 10 | > 10 | 9.4 (≈ 3.42 µg/mL) | > 10 | > 10 | > 10 | 4.9 (≈ 1.78 µg/mL) | 9.64 (≈ 3.51 µg/mL) | > 10 | 20 | > 10 | > 10 | 
COc1ccc(/C=C/C(=O)c2ccc(-c3ccccc3)cc2)cc1 | 1.18 (≈ 0.371 µg/mL) | > 10 | > 10 | > 10 | > 10 | > 10 | > 10 | > 10 | > 10 |  | > 10 | > 10 | 
CSc1ccc(C(=O)/C=C/c2ccco2)cc1 | > 10 | > 10 | > 10 | > 10 | > 10 | > 10 | > 10 | > 10 | > 10 |  | > 10 | > 10 | 
O=C(/C=C/c1ccc([N+](=O)[O-])o1)c1ccc(N2CCCC2)cc1 | > 10 | > 10 | 0.39 (≈ 0.122 µg/mL) | 4.3 (≈ 1.34 µg/mL) | > 10 | > 10 | > 10 | > 10 | > 10 |  | > 10 | > 10 | 
Cc1ccc(C(=O)/C=C/c2ccc([N+](=O)[O-])s2)cc1 | > 10 | > 10 | 1.54 (≈ 0.421 µg/mL) | 2.05 (≈ 0.56 µg/mL) | > 10 | > 10 | 1.87 (≈ 0.511 µg/mL) | 2.3 (≈ 0.629 µg/mL) | > 10 |  | > 10 | > 10 | 
O=C(/C=C/c1ccc([N+](=O)[O-])o1)c1ccc(Br)cc1 | 0.36 (≈ 0.116 µg/mL) | > 10 |  | 6.76 (≈ 2.18 µg/mL) |  |  | 2.5 (≈ 0.805 µg/mL) |  | 4.93 (≈ 1.59 µg/mL) |  |  | 7.12 (≈ 2.29 µg/mL) | 
CC(C)(C)c1ccc(C(=O)/C=C/c2ccco2)cc1 | > 10 | > 10 | > 10 | > 10 | > 10 | > 10 | > 10 | > 10 | > 10 |  | > 10 | > 10 | 
O=C(/C=C/c1cccc([N+](=O)[O-])c1)c1ccc(N2CCCCC2)cc1 | > 10 | > 10 | > 10 | > 10 | > 10 | > 10 | > 10 | > 10 | > 10 |  | > 10 | > 10 | 
CC(C)(C)c1ccc(C(=O)/C=C/c2ccc[nH]2)cc1 | > 10 | > 10 | > 10 | > 10 | > 10 | > 10 | > 10 | > 10 | > 10 |  | > 10 | > 10 | 
O=C(/C=C/c1ccc([N+](=O)[O-])o1)c1ccc(N2CCCCC2)cc1 | > 10 | > 10 |  | 10.9 (≈ 3.56 µg/mL) |  |  | 3.42 (≈ 1.12 µg/mL) |  | > 10 |  |  | > 10 | 
CCCCc1ccc(C(=O)/C=C/c2ccc([N+](=O)[O-])o2)cc1 | 2.23 (≈ 0.667 µg/mL) | > 10 | 0.58 (≈ 0.174 µg/mL) | 4.21 (≈ 1.26 µg/mL) | > 10 | > 10 | 1.31 (≈ 0.392 µg/mL) | 3.07 (≈ 0.919 µg/mL) | > 10 | 57 | > 10 | > 10 | 
CC(C)(C)c1ccc(C(=O)/C=C/c2ccc([N+](=O)[O-])s2)cc1 | > 10 | > 10 | 0.92 (≈ 0.29 µg/mL) | 4.18 (≈ 1.32 µg/mL) | > 10 | > 10 | 0.22 (≈ 0.0694 µg/mL) | 1.08 (≈ 0.341 µg/mL) | > 10 | 454 | > 10 | > 10 | 
O=C(/C=C/c1ccco1)c1ccc(N2CCCCC2)cc1 | > 10 | > 10 | > 10 | > 10 | > 10 | > 10 | > 10 | > 10 | > 10 |  | > 10 | > 10 | 
CN(C)c1ccc(/C=C/C(=O)c2ccc(-c3ccccc3)cc2)cc1 | > 10 | > 10 | > 10 | > 10 | > 10 | > 10 | > 10 | > 10 | > 10 |  | > 10 | > 10 | 
O=C(/C=C/c1ccc([N+](=O)[O-])o1)c1ccc(N2CCOCC2)cc1 | 1.19 (≈ 0.391 µg/mL) | > 10 |  | 9.85 (≈ 3.23 µg/mL) |  |  | 0.81 (≈ 0.266 µg/mL) |  | > 10 | 123 |  | > 10 | 
CC(C)(C)c1ccc(C(=O)/C=C/c2ccc([N+](=O)[O-])o2)cc1 | > 10 | > 10 |  | > 10 |  |  | 0.35 (≈ 0.105 µg/mL) |  | > 10 | 284 |  | > 10 | 
O=C(/C=C/c1ccc([N+](=O)[O-])s1)c1ccc(N2CCOCC2)cc1 | > 10 | > 10 | 8.27 (≈ 2.85 µg/mL) | > 10 | > 10 | > 10 | > 10 | > 10 | > 10 |  | > 10 | > 10 | 
O=C(/C=C/c1ccc([N+](=O)[O-])o1)c1ccc(-n2ccnc2)cc1 | 0.34 (≈ 0.105 µg/mL) | 3.18 (≈ 0.984 µg/mL) |  | 6.94 (≈ 2.15 µg/mL) |  |  | 1.05 (≈ 0.325 µg/mL) |  | > 10 | 94 |  | > 10 | 
NNC(=O)c1ccncc1 [ISONIAZID] |  |  |  | > 256 |  |  | 0.41 (≈ 0.0562 µg/mL) |  |  |  |  | > 10 | 
C[C@@H]1[C@H](O)[C@@H](C)/C=C/C=C/C=C/C=C/C=C/C=C/C=C/[C@H](O[C@@H]2O[C@H](C)[C@@H](O)[C@H](N)[C@@H]2O)C[C@@H]2O[C@](O)(C[C@@H](O)C[C@@H](O)[C@H](O)CC[C@@H](O)C[C@@H](O)CC(=O)O[C@H]1C)C[C@H](O)[C@H]2C(=O)O [AMPHOTERICIN B] |  |  |  |  |  |  |  |  | < 0.004 |  |  |  | 
CO[C@H]1/C=C/O[C@@]2(C)Oc3c(C)c(O)c4c(O)c(c(/C=N/N5CCN(C)CC5)c(O)c4c3C2=O)NC(=O)/C(C)=C\C=C\[C@H](C)[C@H](O)[C@@H](C)[C@@H](O)[C@@H](C)[C@H](OC(C)=O)[C@@H]1C [RIFAMPIN] |  |  |  | 0.19 (≈ 0.156 µg/mL) |  |  | 0.05 (≈ 0.0411 µg/mL) |  |  |  |  | > 10 | 2000
O=C(/C=C/c1ccc(Cl)s1)c1ccc(-n2ccnc2)cc1 | > 10 | > 10 | 9.17 (≈ 2.89 µg/mL) | 9.75 (≈ 3.07 µg/mL) | > 10 | > 10 | 9.29 (≈ 2.92 µg/mL) | > 10 | > 10 |  | > 10 | > 10 | 
O=C(/C=C/c1ccc([N+](=O)[O-])o1)c1ccc(N2CCNCC2)cc1 | > 10 | > 10 |  | 9.67 (≈ 3.17 µg/mL) |  |  | 0.27 (≈ 0.0884 µg/mL) |  | > 10 | 359 |  | > 10 | 
